Broadly, the EC50 is the concentration giving half of the maximal effect. In general, Ki refers to a dissociation constant, usually derived from enzyme kinetics or from competition with a known ligand.

The subject of assay [1] is Human promyelocytic leukemia (HL60) cells. The assay can be described thus: HL-60 cell differentiation (nitro blue tetrazolium reduction). In kind it is cell-based. The settings on record: 4 days, FIG. 2. The method, then:
The study drugs were dissolved in ethanol and the concentrations determined using UV spectrophotometry. Serial dilutions were prepared so that a range of drug concentrations could be tested without changing the final concentration of ethanol (≦0.2%) present in the cell cultures.
Human promyelocytic leukemia (HL60) cells were grown in RPMI-1640 medium containing 10% fetal bovine serum. The cells were incubated at 37° C. in the presence of 5% CO2.
HL60 cells were plated at 1.2×10^5 cells/ml. Eighteen hours after plating, cells in duplicate were treated with drug. Four days later, the cells were harvested and a nitro blue tetrazolium reduction assay was performed (Collins et al., 1979; J. Exp. Med. 149:969-974). The percentage of differentiated cells was determined by counting a total of 200 cells and recording the number that contained intracellular black-blue formazan deposits. Verification of differentiation to monocytic cells was determined by measuring phagocytic activity (data not shown).

Assay [2] deals with 24-hydroxylase (24Ohase) gene promoter. The assay can be described thus: In vitro transcription assay (luciferase reporter) in ROS 17/2.8 (bone) cells. The format is cell-based. The settings on record: ROS 17/2.8 cells, 24Ohase promoter-luciferase, 16 h; FIG. 3; read-out: EC50, transcriptional activity in bone cells. The protocol: Transcription activity was measured in ROS 17/2.8 (bone) cells that were stably transfected with a 24-hydroxylase (24Ohase) gene promoter upstream of a luciferase reporter gene (Arbour et al., 1998). Cells were given a range of doses. Sixteen hours after dosing the cells were harvested and luciferase activities were measured using a luminometer.
RLU=relative luciferase units.

Assay [3] is described as follows: Bone calcium mobilization (serum calcium) in vitamin D-deficient rats. The format is in vivo, Sprague-Dawley rats. The settings on record: 0.02% Ca diet. The method, then:
(§1) Male, weanling Sprague-Dawley rats were placed on Diet 11 (0.47% Ca)+AEK for one week followed by Diet 11 (0.02% Ca)+AEK for 3 weeks. The rats were then switched to the same diet containing 0.47% Ca for one week followed by two weeks on the same diet containing 0.02% Ca. Dose administration began during the last week on 0.02% calcium diet. Four consecutive ip doses were given approximately 24 hours apart. Twenty-four hours after the last dose, blood was collected from the severed neck and the concentration of serum calcium determined by atomic absorption spectrometry as a measure of bone calcium mobilization. The first 10 cm of the intestine was also collected for intestinal calcium transport analysis using the everted gut sac method.

Assay [4] is described as follows: Intestinal calcium transport, everted gut sac method, in vitamin D-deficient rats. The format is in vivo, Sprague-Dawley rats. The settings on record: FIG. 6. The protocol: as §1
Assay [5] deals with T1, full-length recombinant rat vitamin D receptor (Rattus norvegicus, UniProt P13053).
T1 construct: Full-length recombinant rat receptor was expressed in E. coli; histidine tag (C); made in house; host or cells: E. coli BL21 (DE3) Codon Plus RIL
T1 sequence (P13053 1-423): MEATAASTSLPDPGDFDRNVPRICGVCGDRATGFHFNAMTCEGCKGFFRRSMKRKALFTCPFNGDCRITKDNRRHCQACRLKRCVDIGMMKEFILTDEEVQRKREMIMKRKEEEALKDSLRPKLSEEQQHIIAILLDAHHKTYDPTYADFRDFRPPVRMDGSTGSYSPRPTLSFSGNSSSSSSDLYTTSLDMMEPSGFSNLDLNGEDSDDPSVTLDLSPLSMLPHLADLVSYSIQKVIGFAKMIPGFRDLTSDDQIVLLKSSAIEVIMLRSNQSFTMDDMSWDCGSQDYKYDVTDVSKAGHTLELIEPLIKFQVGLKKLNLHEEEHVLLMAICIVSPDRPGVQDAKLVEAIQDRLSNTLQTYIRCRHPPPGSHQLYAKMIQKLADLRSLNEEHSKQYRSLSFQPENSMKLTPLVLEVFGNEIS
The assay can be described thus: Vitamin D receptor competitive binding with [3H]-1,25(OH)2D3. Particulars: full-length recombinant rat VDR; FIG. 1; read-out: Ki, competition with [3H]-1,25(OH)2D3 for binding to the vitamin D receptor. The protocol: Full-length recombinant rat receptor was expressed in E. coli BL21 (DE3) Codon Plus RIL cells and purified to homogeneity using two different column chromatography systems. The first system was a nickel affinity resin that utilizes the C-terminal histidine tag on this protein. The protein that was eluted from this resin was further purified using ion exchange chromatography (S-Sepharose Fast Flow). Aliquots of the purified protein were quick frozen in liquid nitrogen and stored at −80° C. until use. For use in binding assays, the protein was diluted in TEDK50 (50 mM Tris, 1.5 mM EDTA, pH7.4, 5 mM DTT, 150 mM KCl) with 0.1% Chaps detergent. The receptor protein and ligand concentration were optimized such that no more than 20% of the added radiolabeled ligand was bound to the receptor.
Radiolabeled and unlabeled ligands were added to 100 mcl of the diluted protein at a final ethanol concentration of ≦10%, mixed and incubated overnight on ice to reach binding equilibrium. The following day, 100 mcl of hydroxylapatite slurry (50%) was added to each tube and mixed at 10-minute intervals for 30 minutes. The hydroxylapaptite was collected by centrifugation and then washed three times with Tris-EDTA buffer (50 mM Tris, 1.5 mM EDTA, pH 7.4) containing 0.5% Titron X-100. […] Total binding was determined from the tubes containing only radiolabeled ligand.

Turning to `C=C1/C(=C\C=C2/CCC[C@]3(C)[C@@H]([C@H](C)CCCC(C)(C)O)CC[C@@H]23)C[C@@H](O)C[C@@H]1O` [1,25(OH)2D3, 1α,25-dihydroxyvitamin D3, reference compound], the EC50 in assay [1] worked out at 6.2 nM; in assay [2] it was 0.22 nM. The “serum calcium levels (bone calcium mobilization)” value in assay [3] (all dosages tested (FIG. 4)) is recorded as “increased serum calcium levels”. For the same compound, the intestinal calcium transport result in assay [4] (780 pmol/day ip for 4 days) is reported as “promotes a significant increase”.

For `C=C1[C@H](O)CC(=C/C=C2\CCC[C@]3(C)C(=C(C)C)CCC23)C[C@H]1O` (stereo partly drawn) [VIT-I, 2-methylene-19-nor-1α-hydroxy-17-ene-homopregnacalciferol], the Ki in assay [5] worked out at 0.19 nM. For the same compound, the EC50 was determined as 13 nM in assay [1] (Homo sapiens, HL-60, 96 h) and 6 nM in assay [2]. Also, the “mobilization of bone calcium (serum calcium)” value in assay [3] (780 pmol/day ip for 4 consecutive days) was “did not result in mobilization of bone calcium”; in assay [3] (2340 pmol/day ip for 4 consecutive days) it was “without any substantial effect”; in assay [3] (7020 pmol/day ip for 4 consecutive days), “without any substantial effect”. In addition, the intestinal calcium transport result in assay [4] (780 pmol/day ip for 4 days), in assay [4] (2340 pmol/day ip for 4 days) and in assay [4] (7020 pmol/day ip for 4 days) was “does not promote intestinal calcium transport” each time.

For the origin of these results see US7704982B2, “2-methylene-19-nor-1α-hydroxy-17-ene-homopregnacalciferol and its uses” (Wisconsin Alumni Research Foundation, priority 2004, dated 2010).
